Results on 88 compounds are retold here after article PMC12040169 (PLOS Biology, 2025).

The series is described as follows: in vitro. Conditions: human, hela cells, % viability.
The viability is a read-out of living cells in per cent, often relative to untreated cells. Consider `CCCNc1cc(C)c(C#N)c2nc3ccccc3n12` [CBK288097], for which the viability at 28.5 h, 10 µM was found to be 94%.
As for `COc1ccccc1CNc1ncnc2[nH]ncc12` [CBK288100], the figure is 99.5%; as for `CCN1CCN(c2ncnc3sc(C)c(C)c23)CC1` [CBK288101], 98.6%; as for `Cc1ccc(-c2cc(C(=O)NCc3ccc(F)cc3Cl)n[nH]2)cc1` [CBK288102], 85.6%.
Then `COCCNc1nc2c([nH]1)c(=O)n(C)c(=O)n2C` [CBK288104], with 90.3%; and `O=C(c1cc(-c2cccs2)[nH]n1)N1CCCCCC1` [CBK288108], with 92.1%.
Consider `O=C(c1n[nH]c2c1CCCC2)N1CC(=O)N(CCc2ccccc2)C(=O)C1` [CBK288110], for which the viability at 28.5 h, 10 µM was determined as 98.3%.
Then `O=C(NCCc1ccccc1)c1cc(-c2ccccc2Cl)[nH]n1` [CBK288113], with 105%; and `CN(C(=O)c1cc(-c2cccs2)[nH]n1)c1ccccc1` [CBK288115], with 86.1%; and `CCOc1ccc(-c2cc(C(=O)NCc3cc(OC)ccc3OC)n[nH]2)cc1` [CBK288116], with 85.7%.
Consider `COc1ccc(Nc2n[nH]c3nc(C)cc(=O)n23)cc1` [CBK288117], for which the viability at 28.5 h, 10 µM is 91.1%.
Consider `Cn1c(=O)n(C)c2cc(CNCc3ccccn3)ccc21` [CBK288118], for which the viability at 28.5 h, 10 µM was 95.4%.
Turning to `N#Cc1cc2c(=O)n(-c3ccccn3)ccc2[nH]c1=O` [CBK288119], the viability at 28.5 h, 10 µM was 94.5%.
For `CC1CCCN(c2nc3nc[nH]c(=O)c3s2)C1` (stereo not shown) [CBK288120], the viability at 28.5 h, 10 µM is 83.4%.
As for `Cc1ccc(C(=O)Nc2noc3ccccc23)cc1` [CBK288124], the figure is 88.9%; as for `CCOc1ccc(Cl)cc1CNc1nnnn1CC` [CBK288128], 92.9%.
As for `COc1ccc(CNc2nc[nH]n2)c(OC)c1OC` [CBK288129], the figure is 103%.
As for `CC(=O)Nc1ccc(-c2nc3ncccc3o2)cc1C` [CBK288132], the figure is 91.1%.
With `Cc1ccc(NC(=O)C2CC(=O)Nc3nc4ccccc4n32)cc1` (stereo not shown) [CBK288134], the viability at 28.5 h, 10 µM turned out to be 113%.
As for `Cc1ccccc1-c1cc(=O)[nH]c(Nc2ccccc2)n1` [CBK288142], the figure is 97%; as for `Cc1ccc(Nc2ncc3c(n2)CCCC3=O)cc1` [CBK288143], 87.6%; as for `COc1cc(C2C3=C(COC3=O)Nc3[nH]nc(C)c32)ccc1O` (stereo not shown) [CBK288146], 98.5%.
Then `O=C1CCCC2=C1C(c1ccc(OCc3ccccc3)cc1)c1c([nH][nH]c1=O)N2` (stereo not shown) [CBK288149], with 92.1%; and `O=C1CCCC2=C1C(c1ccccc1Cl)n1nnnc1N2` (stereo not shown) [CBK288151], with 93%; and `Cc1ccc(-c2nc3ncc(C#N)c(N)n3n2)cc1` [CBK288153], with 106%.
Then `O=C1NNC=Cc2c1cnc1nc(C(F)(F)F)nn21` [CBK288156], with 93.3%; and `Cc1cc(C)nc(NC(=N)NCc2ccccc2)n1` [CBK288157], with 94.2%; and `CCN1C(=O)c2[nH]nc(-c3ccccc3O)c2C1c1cccc(O)c1` (stereo not shown) [CBK288159], with 95.9%.
For the compound `Cc1ccc(-n2c(C)c(C)c3c(NCCO)cnnc32)cc1` [CBK288162], the viability at 28.5 h, 10 µM is 101%.
Consider `Cn1c(=O)c2c(nc(NCCOCCO)n2C)n(C)c1=O` [CBK288164], for which the viability at 28.5 h, 10 µM was 98.2%.
Then `COCc1cc(=O)n2ncc(-c3ccccc3)c2[nH]1` [CBK288168], with 84.6%; and `CSc1nc2n(n1)C(C)C1=C(CCCC1=O)N2` (stereo not shown) [CBK288169], with 108%.
Then `COc1cc(NC(=O)c2nc[nH]n2)c(OC)cc1Cl` [CBK288170], with 93%; and `c1ccc2c(c1)NC(c1ccncc1)n1nnnc1-2` (stereo not shown) [CBK288171], with 82.5%.
As for `Cc1ccc(C(=O)n2nc(-c3cccnc3)nc2N)cc1` [CBK288172], the viability at 28.5 h, 10 µM was determined as 97.4%.
On to `Oc1cc(Cc2ccccc2)cnc1CN1CCOCC1` [CBK288173], for which the viability at 28.5 h, 10 µM worked out at 94%.
As for `CCOc1cc(O)c(-c2nc(N)ncc2-c2ccc3c(c2)OCCO3)cc1CC` [CBK288174], the figure is 94.7%; as for `NC(=O)Nc1ccc2c(c1)ncn2C1CCCCC1` [CBK288176], 95.6%; as for `CCOc1ccc(-c2c(C3CC3)n[nH]c2N)cc1OCC` [CBK288177], 107%.
As to `CC(C)(C)NC(=O)COc1ccc(CNc2nc[nH]n2)cc1` [CBK288179], the viability at 28.5 h, 10 µM is 89.3%.
As for `N#Cc1ccc(C2NC(=O)c3ccccc3O2)cc1` (stereo not shown) [CBK288180], the figure is 89.3%; as for `Nc1ncnc2c1nc(SCc1ccccc1)n2Cc1ccccc1` [CBK288181], 90.9%; as for `O=C(O)CC1Cn2ncc(-c3ccccc3)c2NC1=O` (stereo not shown) [CBK288187], 89.5%.
As for `O=c1c2c([nH]c3nc(COc4ccccc4)nn13)CCC2` [CBK288188], the figure is 98%.
As for `Nc1cc(=O)[nH]c(=O)n1CCc1c[nH]c2ccccc12` [CBK288190], the figure is 98.1%.
As for `Cc1ccc(-c2c(N3CCCC3)n[nH]c2C2CC2)cc1` [CBK288192], the viability at 28.5 h, 10 µM stood at 97.8%.
As for `Cc1nc(=O)c(-c2ccccc2)c(C)n1-c1ccc2cn[nH]c2c1` [CBK288193], the figure is 100%.
Then `Nc1nc2n(c1C(=O)c1ccc(Cl)cc1)CCC2` [CBK288194], with 92.5%; and `COc1ccc(Cl)cc1Nc1ncnc(N)n1` [CBK288195], with 100%; and `N#Cc1c2c(c3nncn3c1Nc1ccccc1)CCCC2` [CBK288197], with 97.7%.
Turning to `CC1(C)Cc2c(cnn2-c2ccc(F)cc2)C(N)C1` (stereo not shown) [CBK288200], the viability at 28.5 h, 10 µM turned out to be 91.9%.
Then `COc1ccccc1OCC(=O)N1CCNC1=O` [CBK288201], with 93.8%; and `O=C(Cc1ccccc1)Nc1ccc2[nH]ncc2c1` [CBK288211], with 104%.
With `CCCc1cc(C(=O)Nc2nccs2)cs1` [CBK288212], the viability at 28.5 h, 10 µM came out at 83.9%.
Then `O=C(Nc1ncccc1Cl)c1ccc(F)cc1` [CBK288215], with 93.1%; and `Nc1nc2n(n1)C1(CCCCC1)C1=C(CCCC1)N2` [CBK288219], with 86.7%.
On to `CC(C)(Oc1ccc(Cl)cc1)C(=O)Nc1nnc[nH]1` [CBK288220], for which the viability at 28.5 h, 10 µM came out at 102%.
As for `Cc1ccc2c(c1C)NC(=O)CC2c1ccc(F)cc1` (stereo not shown) [CBK288221], the figure is 101%.
Then `Cc1ccc(Nc2nc(N)nc(-c3cc4ccccc4o3)n2)cc1` [CBK288222], with 105%; and `CCCCN1CC(C(=O)Nc2nccs2)CC1=O` (stereo not shown) [CBK288224], with 95.3%.
As for `CSc1ccccc1C(=O)Nc1nccs1` [CBK288225], the figure is 88.7%.
Consider `Cc1nc(N2CCCC2)ncc1-c1cc(O)nc(N2CCCCC2)n1` [CBK288226], for which the viability at 28.5 h, 10 µM is 92.3%.
In the case of `Oc1ccc(-c2oncc2-c2ccccc2)c(O)c1` [CBK288228], the viability at 28.5 h, 10 µM stood at 96.2%.
As for `Cc1cccc(NC(=O)c2n[nH]c3ccccc23)c1` [CBK288231], the figure is 84.6%.
Turning to `O=C1NN=C(c2ccccc2)CC1c1c[nH]c2ccccc12` (stereo not shown) [CBK288235], the viability at 28.5 h, 10 µM came to 104%.
Then `CN(C)c1nc(N)nc(COc2ccccc2F)n1` [CBK288236], with 105%; and `O=C1CC(c2ccccc2)c2c(c3ccccc3[nH]c2=O)O1` (stereo not shown) [CBK288237], with 112%; and `COc1cccc(-c2n[nH]c3c2C(c2cccnc2)NC3=O)c1` (stereo not shown) [CBK288238], with 86.3%.
As for `COc1ccc(Oc2c(C)n[nH]c2-c2ccc(O)cc2O)cc1` [CBK288239], the figure is 96%.
Then `Cn1nccc1C(=O)N1CCN(c2ncccn2)CC1` [CBK288240], with 90.7%.
As to `Cc1n[nH]c(C)c1C12CC3CC(CC(CC(=O)O)(C3)C1)C2` [CBK288241], the viability at 28.5 h, 10 µM is 92.2%.
With `O=C(NCc1ccncc1)C1CC1c1ccccc1` (stereo not shown) [CBK288242], the viability at 28.5 h, 10 µM was found to be 107%.
For `Cc1cc(NC(=O)Nc2cccc(Cl)c2C)no1` [CBK288245], the viability at 28.5 h, 10 µM was 87.3%.
As for `Cc1cnc(NC(=O)C(C)Oc2ccccc2)s1` (stereo not shown) [CBK288250], the figure is 108%.
Take `Cc1csc(NC(=O)Cc2ccccc2F)n1` [CBK288252]: the viability at 28.5 h, 10 µM is 84.3%.
Regarding `O=C1c2ccccc2NC(c2cnc3ccccc3n2)N1O` (stereo not shown) [CBK288357], the viability at 28.5 h, 10 µM is 84.7%.
Then `COc1ccccc1-c1cc(C(F)F)nc(S)c1C#N` [CBK288358], with 88.8%; and `CCOc1cc(/C=N/O)c(Br)cc1O` [CBK288359], with 87.4%.
Take `S=c1nccc(N2CCC(Cc3ccccc3)CC2)[nH]1` [CBK288361]: the viability at 28.5 h, 10 µM stood at 112%.
As for `CCCOc1ccc(-c2cc(C(=O)NO)n[nH]2)cc1C` [CBK288362], the figure is 61.3%; as for `O=c1cc(CO)oc(CN2CCCCCC2)c1O` [CBK288363], 97.7%; as for `Fc1ccc(-n2c(C3CC3)n[nH]c2=S)cc1Cl` [CBK288364], 96.7%.
Then `OCCCCn1c(-c2cccnc2)n[nH]c1=S` [CBK288365], with 88.6%.
Regarding `O=C(NCCCN1CCOCC1)/C(=N\O)c1ccccn1` [CBK288366], the viability at 28.5 h, 10 µM came out at 94.1%.
As for `NCCCc1c(-c2ccc(Cl)cc2Cl)[nH][nH]c1=O` [CBK288367], the figure is 86.8%.
For the compound `CNC(=S)Nc1ncn(Cc2cccc(F)c2)n1` [CBK288368], the viability at 28.5 h, 10 µM was 106%.
Regarding `NC(=S)N1N=C2CCCCC2C1c1ccccc1` (stereo not shown) [CBK288371], the viability at 28.5 h, 10 µM came to 84.2%.
As for `CC(C)CCC1(CN2CCCC2=O)C(=O)NC(=O)NC1=O` [CBK288372], the figure is 90.5%.
